Remaining activity, IC50 and melting point data for one compound are collected here from paper PMC9457941, “Synthesis and Kinase Inhibitory Potencies of Pyrazolo[3,4-g]isoquinolines” (Molecules, 2022).

T3 sequence (O60563 whole entry): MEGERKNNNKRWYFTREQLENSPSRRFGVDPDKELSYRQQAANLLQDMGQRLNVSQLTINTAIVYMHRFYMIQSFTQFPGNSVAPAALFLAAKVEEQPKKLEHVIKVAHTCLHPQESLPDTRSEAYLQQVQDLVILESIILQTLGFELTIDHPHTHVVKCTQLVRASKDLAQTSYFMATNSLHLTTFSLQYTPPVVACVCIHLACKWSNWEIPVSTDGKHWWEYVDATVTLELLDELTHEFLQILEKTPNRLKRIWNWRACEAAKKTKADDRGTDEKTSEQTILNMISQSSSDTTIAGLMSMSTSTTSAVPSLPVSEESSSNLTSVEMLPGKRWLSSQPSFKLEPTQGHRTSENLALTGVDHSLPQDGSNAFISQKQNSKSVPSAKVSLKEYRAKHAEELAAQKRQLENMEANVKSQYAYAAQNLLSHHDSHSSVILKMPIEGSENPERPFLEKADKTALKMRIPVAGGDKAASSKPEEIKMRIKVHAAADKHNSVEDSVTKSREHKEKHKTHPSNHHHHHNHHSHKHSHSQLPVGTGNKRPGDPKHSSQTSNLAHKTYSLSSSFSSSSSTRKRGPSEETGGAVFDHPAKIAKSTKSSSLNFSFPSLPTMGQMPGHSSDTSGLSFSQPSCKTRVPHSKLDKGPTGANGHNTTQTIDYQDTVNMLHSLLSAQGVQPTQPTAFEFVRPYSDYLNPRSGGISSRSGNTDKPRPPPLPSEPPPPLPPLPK
T3 sequence (P50750 whole entry): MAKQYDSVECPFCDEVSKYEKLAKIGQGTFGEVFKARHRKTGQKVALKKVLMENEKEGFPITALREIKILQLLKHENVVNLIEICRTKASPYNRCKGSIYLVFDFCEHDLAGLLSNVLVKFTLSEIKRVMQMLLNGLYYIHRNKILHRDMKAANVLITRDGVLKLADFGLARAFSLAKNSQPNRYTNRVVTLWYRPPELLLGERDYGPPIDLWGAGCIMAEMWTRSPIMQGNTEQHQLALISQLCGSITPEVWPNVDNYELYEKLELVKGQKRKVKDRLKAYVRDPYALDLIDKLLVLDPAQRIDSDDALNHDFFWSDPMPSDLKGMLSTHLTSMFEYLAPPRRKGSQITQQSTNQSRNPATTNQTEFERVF

One data set deals with T1, Pim-1 (Homo sapiens, UniProt P11309).
T1 construct: host or cells: bacteria
T1 sequence (P11309 whole entry): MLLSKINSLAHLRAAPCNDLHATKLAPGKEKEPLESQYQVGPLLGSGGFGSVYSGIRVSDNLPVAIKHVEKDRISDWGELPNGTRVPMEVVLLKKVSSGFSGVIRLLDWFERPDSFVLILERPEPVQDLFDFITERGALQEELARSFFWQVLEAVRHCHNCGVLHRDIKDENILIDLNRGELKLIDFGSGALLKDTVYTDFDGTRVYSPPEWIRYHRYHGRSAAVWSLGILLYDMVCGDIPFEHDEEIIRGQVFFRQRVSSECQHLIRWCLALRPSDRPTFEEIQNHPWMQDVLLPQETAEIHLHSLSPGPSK
The experiment in a line: ADP-Glo kinase inhibition assay, Pim-1. Type of data set: biochemical. The following applies: 1 μM compound, 10 μM ATP, duplicate; read-out: PIM1 % residual activity at 1 μM. The protocol: (§1) Kinase enzymatic activities were assayed in 384 well plates using the ADP-GloTM assay kit (Promega, Madison, WI, USA) according to the manufacturer’s guidance. Briefly, the reactions were carried out in a final volume of 6 μL for 30 min at 30 °C in an appropriate kinase buffer (10 mM MgCl2, 1 mM EGTA, 1 mM DTT, 25 mM Tris-HCl pH 7.5, 50 μg/mL heparin), with either protein or peptide as substrate in the presence of 10 μM ATP (40 mM Tris pH 7.5, 20 mM MgCl2 and 0.1 mg/mL of BSA). Afterward, 6 μL of ADP-GloTM Kinase Reagent was added to stop the kinase reaction. After an incubation time of 50 min at room temperature (RT), 12 μL of Kinase Detection Reagent was added for 1 h at RT. The transmitted signal was measured using the Envision (Perkin Elmer, Waltham, MA, USA) microplate luminometer and expressed in relative light unit (RLU). In order to determine the half maximal inhibitory concentration (IC50), the assays were performed in duplicate in the absence or presence of increasing doses of the tested compounds. GraphPad Prism6 software (GraphPad Software, San Diego, CA, USA) was used to fit dose–response curves and to determine the IC50 values. Kinase activities are expressed in the percentage of maximal activity, i.e., measured in the absence of an inhibitor. Peptide substrates were obtained from Proteogenix (Schiltigheim, France).
(§2) The following protein kinases were analyzed in this study: CDK5/p25 (human, recombinant, expressed in bacteria) was assayed with 0.8 μg/μL of histone H1 as substrate; CDK9/CyclinT (human, recombinant, expressed by baculovirus in Sf9 insect cells) were assayed with 0.27 μg/μL of the following peptide: […], as substrate; CK1ε (human, recombinant, expressed by baculovirus in Sf9 insect cells) was assayed with 0.022 μg/μL of the following peptide: […]pAYSITA (“Sp” stands for phosphorylated serine) as CK1-specific substrate; GSK3β (human, recombinant, expressed by baculovirus in Sf9 insect cells) were assayed with 0.010 μg/μL of GS-1 peptide, a GSK-3-selective substrate ([…]pEDEEE); Haspin-kd (human, kinase domain, amino acids 470–798, recombinant, expressed in bacteria) was assayed with 0.007 μg/μL of histone H3 (1–21) peptide ([…]) as substrate; Pim-1 (human proto-oncogene, recombinant, expressed in bacteria) was assayed with 0.8 μg/μL of histone H1 as substrate; MmCLK1 (from Mus musculus, recombinant, expressed in bacteria) was assayed with 0.027 μg/μL of the following peptide: […] as substrate; RnDYRK1A-kd (Rattus norvegicus, amino acids 1–499 including the kinase domain, recombinant, expressed in bacteria, DNA vector kindly provided by Dr. W. Becker, Aachen, Germany) was assayed with 0.033 μg/μL of the following peptide: […] as substrate.
(ADP-Glo turns the ADP formed in a reaction into a luminescent signal.)
With `CCn1ncc2c(C3CC3)c3cnccc3c([N+](=O)[O-])c21` [Compound 3d, 4-Cyclopropyl-1-ethyl-9-nitro-1H-pyrazolo[3,4-g]isoquinoline], the remaining activity at 1 µM was 99%.

Staying with this data set, now noted: 10 μM compound, 10 μM ATP, duplicate; read-out: PIM1 % residual activity at 10 μM.
For `CCn1ncc2c(C3CC3)c3cnccc3c([N+](=O)[O-])c21` [Compound 3d, 4-Cyclopropyl-1-ethyl-9-nitro-1H-pyrazolo[3,4-g]isoquinoline], the remaining activity at 10 µM came to 82%.

For the next data set, the target named is T2, Haspin-kd (human, kinase domain, amino acids 470–798) (Homo sapiens, UniProt Q8TF76).
T2 construct: Haspin-kd (human, kinase domain, amino acids 470–798, recombinant, expressed in bacteria); host or cells: bacteria
T2 sequence (Q8TF76 470-798): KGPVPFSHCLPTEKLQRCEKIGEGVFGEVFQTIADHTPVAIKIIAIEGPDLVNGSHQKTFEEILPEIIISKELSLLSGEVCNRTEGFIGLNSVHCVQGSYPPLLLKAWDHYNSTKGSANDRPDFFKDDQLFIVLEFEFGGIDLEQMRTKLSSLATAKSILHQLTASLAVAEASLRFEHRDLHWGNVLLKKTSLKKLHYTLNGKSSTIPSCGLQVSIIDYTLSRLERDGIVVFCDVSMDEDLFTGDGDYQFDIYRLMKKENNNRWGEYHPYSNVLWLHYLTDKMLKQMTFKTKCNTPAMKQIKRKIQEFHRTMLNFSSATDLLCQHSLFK
The experiment in a line: ADP-Glo kinase inhibition assay, Haspin. It is filed as biochemical. The following applies: 10 μM ATP, duplicate. The protocol: as §1
For `CCn1ncc2c(C3CC3)c3cnccc3c([N+](=O)[O-])c21` [Compound 3d, 4-Cyclopropyl-1-ethyl-9-nitro-1H-pyrazolo[3,4-g]isoquinoline], it took 312 nM to reach half-maximal inhibition (IC50).

Staying with this data set, now noted: read-out: Haspin % residual activity at 1 μM.
For `CCn1ncc2c(C3CC3)c3cnccc3c([N+](=O)[O-])c21` [Compound 3d, 4-Cyclopropyl-1-ethyl-9-nitro-1H-pyrazolo[3,4-g]isoquinoline], the remaining activity at 1 µM amounted to 21%.

The data set is the same for the next values; noted with them: read-out: Haspin % residual activity at 10 μM.
In the case of `CCn1ncc2c(C3CC3)c3cnccc3c([N+](=O)[O-])c21` [Compound 3d, 4-Cyclopropyl-1-ethyl-9-nitro-1H-pyrazolo[3,4-g]isoquinoline], the remaining activity at 10 µM is 12%.

A further data set has as its target T3, CDK9/CyclinT (Homo sapiens, UniProt P50750).
T3 construct: host or cells: Sf9 insect cells (baculovirus)
The experiment in a line: ADP-Glo kinase inhibition assay, CDK9/CyclinT. It is filed as biochemical. The following applies: 10 μM ATP, duplicate. The procedure:
as §1, §2
Compound `CCn1ncc2c(C3CC3)c3cnccc3c([N+](=O)[O-])c21` [Compound 3d, 4-Cyclopropyl-1-ethyl-9-nitro-1H-pyrazolo[3,4-g]isoquinoline] yielded an IC50 of 266 nM.

The data set is the same for the next values; noted with them: read-out: CDK9 % residual activity at 1 μM.
With `CCn1ncc2c(C3CC3)c3cnccc3c([N+](=O)[O-])c21` [Compound 3d, 4-Cyclopropyl-1-ethyl-9-nitro-1H-pyrazolo[3,4-g]isoquinoline], the remaining activity at 1 µM was 33%.

Still in this data set, the particulars now being: read-out: CDK9 % residual activity at 10 μM.
Consider `CCn1ncc2c(C3CC3)c3cnccc3c([N+](=O)[O-])c21` [Compound 3d, 4-Cyclopropyl-1-ethyl-9-nitro-1H-pyrazolo[3,4-g]isoquinoline], for which the remaining activity at 10 µM was 11%.

Another data set deals with T4, RnDYRK1A-kd (Rattus norvegicus, UniProt Q63470).
T4 construct: RnDYRK1A-kd (Rattus norvegicus, amino acids 1–499 including the kinase domain, recombinant, expressed in bacteria); made in house; host or cells: bacteria
The experiment in a line: ADP-Glo kinase inhibition assay, DYRK1A. Type of data set: biochemical. The following applies: read-out: DYRK1A % residual activity at 1 μM. The protocol: as §1, §2
Take `CCn1ncc2c(C3CC3)c3cnccc3c([N+](=O)[O-])c21` [Compound 3d, 4-Cyclopropyl-1-ethyl-9-nitro-1H-pyrazolo[3,4-g]isoquinoline]: the remaining activity at 1 µM was found to be 67%.

The same data set, now with this note: read-out: DYRK1A % residual activity at 10 μM.
For the compound `CCn1ncc2c(C3CC3)c3cnccc3c([N+](=O)[O-])c21` [Compound 3d, 4-Cyclopropyl-1-ethyl-9-nitro-1H-pyrazolo[3,4-g]isoquinoline], the remaining activity at 10 µM worked out at 29%.

For a further data set, the target named is T5, GSK3β (Homo sapiens, UniProt P49841).
T5 construct: host or cells: Sf9 insect cells (baculovirus)
T5 sequence (P49841 whole entry): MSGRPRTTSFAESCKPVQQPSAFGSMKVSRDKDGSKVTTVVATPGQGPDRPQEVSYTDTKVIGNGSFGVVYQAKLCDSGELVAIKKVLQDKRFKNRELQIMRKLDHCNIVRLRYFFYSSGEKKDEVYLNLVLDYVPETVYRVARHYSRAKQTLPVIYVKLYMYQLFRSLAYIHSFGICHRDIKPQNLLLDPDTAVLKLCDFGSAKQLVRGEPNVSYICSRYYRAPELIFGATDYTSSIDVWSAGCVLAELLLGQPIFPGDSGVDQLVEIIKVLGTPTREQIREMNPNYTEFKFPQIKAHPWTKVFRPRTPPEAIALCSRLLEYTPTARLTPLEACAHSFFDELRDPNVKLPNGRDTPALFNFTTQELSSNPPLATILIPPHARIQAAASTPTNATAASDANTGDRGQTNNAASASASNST
The experiment in a line: ADP-Glo kinase inhibition assay, GSK3β. It is filed as biochemical. As to conditions: 10 μM ATP, duplicate; read-out: GSK3 IC50. The protocol:
as §1, §2
As to `CCn1ncc2c(C3CC3)c3cnccc3c([N+](=O)[O-])c21` [Compound 3d, 4-Cyclopropyl-1-ethyl-9-nitro-1H-pyrazolo[3,4-g]isoquinoline], the 50% inhibitory concentration (IC50) stood at 226 nM.

Still in this data set, the particulars now being: read-out: GSK3 % residual activity at 1 μM.
For `CCn1ncc2c(C3CC3)c3cnccc3c([N+](=O)[O-])c21` [Compound 3d, 4-Cyclopropyl-1-ethyl-9-nitro-1H-pyrazolo[3,4-g]isoquinoline], the remaining activity at 1 µM was determined as 17%.

Still in this data set, the particulars now being: read-out: GSK3 % residual activity at 10 μM.
Regarding `CCn1ncc2c(C3CC3)c3cnccc3c([N+](=O)[O-])c21` [Compound 3d, 4-Cyclopropyl-1-ethyl-9-nitro-1H-pyrazolo[3,4-g]isoquinoline], the remaining activity at 10 µM is 5%.

The next data set deals with T6, CDK5/p25 (Homo sapiens, UniProt Q00535).
T6 construct: host or cells: bacteria
T6 sequence (Q00535 whole entry): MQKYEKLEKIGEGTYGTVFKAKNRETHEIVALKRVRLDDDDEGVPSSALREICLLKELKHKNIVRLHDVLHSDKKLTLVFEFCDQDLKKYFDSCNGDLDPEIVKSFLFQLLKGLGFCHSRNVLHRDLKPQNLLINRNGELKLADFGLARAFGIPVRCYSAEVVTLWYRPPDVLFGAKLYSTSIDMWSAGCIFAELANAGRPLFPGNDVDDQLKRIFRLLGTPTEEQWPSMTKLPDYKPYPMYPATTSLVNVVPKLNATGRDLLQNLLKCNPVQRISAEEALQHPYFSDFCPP
T6 sequence (Q15078 99-307, further chain): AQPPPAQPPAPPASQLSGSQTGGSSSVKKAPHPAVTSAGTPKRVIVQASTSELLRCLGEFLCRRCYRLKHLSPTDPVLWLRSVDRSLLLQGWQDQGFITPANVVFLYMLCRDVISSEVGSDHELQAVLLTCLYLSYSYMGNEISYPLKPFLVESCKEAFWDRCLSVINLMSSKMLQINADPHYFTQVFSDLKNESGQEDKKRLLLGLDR
As to the kind of experiment: ADP-Glo kinase inhibition assay, CDK5/p25. As to conditions: read-out: CDK5 % residual activity at 1 μM. It is filed as biochemical. The protocol:
as §1, §2
Consider `CCn1ncc2c(C3CC3)c3cnccc3c([N+](=O)[O-])c21` [Compound 3d, 4-Cyclopropyl-1-ethyl-9-nitro-1H-pyrazolo[3,4-g]isoquinoline], for which the remaining activity at 1 µM amounted to 67%.

Staying with this data set, now noted: read-out: CDK5 % residual activity at 10 μM.
As to `CCn1ncc2c(C3CC3)c3cnccc3c([N+](=O)[O-])c21` [Compound 3d, 4-Cyclopropyl-1-ethyl-9-nitro-1H-pyrazolo[3,4-g]isoquinoline], the remaining activity at 10 µM amounted to 24%.

For a further data set, the target named is T7, MmCLK1 (Mus musculus, UniProt P22518).
T7 construct: host or cells: bacteria
T7 sequence (P22518 whole entry): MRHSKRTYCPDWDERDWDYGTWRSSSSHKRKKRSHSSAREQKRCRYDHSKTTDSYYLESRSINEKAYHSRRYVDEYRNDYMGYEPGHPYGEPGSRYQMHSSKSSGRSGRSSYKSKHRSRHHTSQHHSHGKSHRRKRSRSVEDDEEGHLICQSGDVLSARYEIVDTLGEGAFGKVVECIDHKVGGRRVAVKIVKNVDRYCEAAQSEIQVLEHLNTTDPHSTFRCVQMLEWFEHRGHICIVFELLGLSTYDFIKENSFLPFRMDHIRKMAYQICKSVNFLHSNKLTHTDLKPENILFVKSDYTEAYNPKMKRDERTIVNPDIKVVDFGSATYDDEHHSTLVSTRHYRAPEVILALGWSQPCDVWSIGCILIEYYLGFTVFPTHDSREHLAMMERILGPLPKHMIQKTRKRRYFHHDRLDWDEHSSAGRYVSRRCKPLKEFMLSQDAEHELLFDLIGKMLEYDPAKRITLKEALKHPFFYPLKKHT
The experiment in a line: ADP-Glo kinase inhibition assay, CLK1. It is filed as biochemical. As to conditions: 10 μM ATP, duplicate; read-out: CLK1 IC50. The procedure:
as §1, §2
Take `CCn1ncc2c(C3CC3)c3cnccc3c([N+](=O)[O-])c21` [Compound 3d, 4-Cyclopropyl-1-ethyl-9-nitro-1H-pyrazolo[3,4-g]isoquinoline]: the IC50 came out at 229 nM.

The same data set, now with this note: read-out: CLK1 % residual activity at 1 μM.
For the compound `CCn1ncc2c(C3CC3)c3cnccc3c([N+](=O)[O-])c21` [Compound 3d, 4-Cyclopropyl-1-ethyl-9-nitro-1H-pyrazolo[3,4-g]isoquinoline], the remaining activity at 1 µM was found to be 24%.

Still in this data set, the particulars now being: read-out: CLK1 % residual activity at 10 μM.
As to `CCn1ncc2c(C3CC3)c3cnccc3c([N+](=O)[O-])c21` [Compound 3d, 4-Cyclopropyl-1-ethyl-9-nitro-1H-pyrazolo[3,4-g]isoquinoline], the remaining activity at 10 µM is 5%.

The target in a further data set is T8, CK1ε (Homo sapiens, UniProt P49674).
T8 construct: host or cells: Sf9 insect cells (baculovirus)
T8 sequence (P49674 whole entry): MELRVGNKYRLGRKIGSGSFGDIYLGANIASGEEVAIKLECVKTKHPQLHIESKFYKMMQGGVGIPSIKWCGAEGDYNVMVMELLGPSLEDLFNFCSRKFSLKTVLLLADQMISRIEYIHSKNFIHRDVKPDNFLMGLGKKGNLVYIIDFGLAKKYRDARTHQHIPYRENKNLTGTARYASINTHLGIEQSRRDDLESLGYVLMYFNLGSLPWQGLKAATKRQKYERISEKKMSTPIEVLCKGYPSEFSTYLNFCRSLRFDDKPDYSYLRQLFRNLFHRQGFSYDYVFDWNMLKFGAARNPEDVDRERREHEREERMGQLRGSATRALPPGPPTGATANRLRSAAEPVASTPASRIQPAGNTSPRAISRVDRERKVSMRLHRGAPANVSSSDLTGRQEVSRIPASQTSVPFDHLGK
The experiment in a line: ADP-Glo kinase inhibition assay, CK1ε. Type of data set: biochemical. The following applies: 1 μM compound, 10 μM ATP, duplicate; read-out: CK1 % residual activity at 1 μM. The protocol:
as §1, §2
Take `CCn1ncc2c(C3CC3)c3cnccc3c([N+](=O)[O-])c21` [Compound 3d, 4-Cyclopropyl-1-ethyl-9-nitro-1H-pyrazolo[3,4-g]isoquinoline]: the remaining activity at 1 µM is 61%.

The same data set, now with this note: 10 μM compound, 10 μM ATP, duplicate; read-out: CK1 % residual activity at 10 μM.
`CCn1ncc2c(C3CC3)c3cnccc3c([N+](=O)[O-])c21` [Compound 3d, 4-Cyclopropyl-1-ethyl-9-nitro-1H-pyrazolo[3,4-g]isoquinoline]: the remaining activity at 10 µM stood at 15%.

Test system in another data set: not given
Experiment: not given
Settings: not given
Compound `CCn1ncc2c(C3CC3)c3cnccc3c([N+](=O)[O-])c21` [Compound 3d, 4-Cyclopropyl-1-ethyl-9-nitro-1H-pyrazolo[3,4-g]isoquinoline] registered a melting point of 97 °C.

For orientation: IC50 means the concentration that inhibits the measured activity by half. What is called melting point is the temperature of the solid-liquid transition.
